The structures appear in SMILES notation.

Data set [1] can be described thus: Stability of the compound in liver microsomes (rat). The class given is in vitro ADME, SD rat. The conditions noted are these: 1 μM compound, 0.5 mg protein/mL. As for the experimental part:
(§1) 2.1.1. working solution: 5 μL of test or control compound stock solution (10 mM DMSO solution) was diluted with 495 μL of acetonitrile (ACN) to obtain an intermediate stock solution (100 μM, 99% ACN).
(§2) 2.2.2 Preparation procedure: An appropriate amount of NADPH powder was weighed and diluted with 10 mM MgCl2 buffer (working solution concentration: 10 mM; final reaction system concentration: 1 mM).
(§3) 2.3.2 Preparation procedure: The appropriate concentration of liver microsomal working solution was prepared in 100 mM potassium phosphate buffer;
(§4) Acetonitrile (ACN) solution at 4° C. containing 200 ng/mL of Tolbutamide and 200 ng/ml of labetalol as internal standards 2.5. Operation steps:
(§5) 2.5.2. Diluting liver microsomes with 100 mM potassium phosphate buffer to a concentration of 0.56 mg/mL.
(§6) 2.5.3. Transferring 445 μL of liver microsomal working solution (0.56 mg/mL) to pre-heated incubation plates T60 and NCF60, and then pre-heating the incubation plates T60 and NCF60 for 10 minutes at 37° C. with shaking. Transferring 54 μL of liver microsomes to each well of the blank plate, adding 6 μL of NAPDH coenzyme solution to the blank plate, and finally transferring 180 μL of termination solution to the blank plate.
(§7) 2.5.4 Adding 5 μL of compound working solution (100 μM) to the incubation plates T60 and NCF60 containing liver microsomes and mixing three times.
(§8) 2.5.5. Adding 50 μL of buffer to the NCF60 plate and mixing three times, starting the timer and incubating at 37° C. for 60 min with the plate shaking.
(§9) 2.5.6. Adding 180 μL of quenching solution and 6 μL of NAPDH coenzyme working solution sequentially to quenching plate TO, making sure that the plate was cold to prevent volatilization of the incubation solution.
(§10) 2.5.7. For plate T60, mixing well three times and immediately transferring 54 μL of mixing solution (0-min time point) to quenching plate TO, then adding 44 μL of NAPDH coenzyme working solution to incubation plate T60. Starting the timer:
(§11) 2.5.8. At the 5, 15, 30, 45 and 60 minute time points, adding 180 μL of quenching solution to the quenching plate and transferring 60 μL of reaction solution from the T60 plate to the quenching plate at each time point.
(§12) 2.5.9. For NCF60 plates, mixing well and transferring 60 μL of reaction solution from the NCF60 incubating solution to a quenching plate containing 180 μL of quenching solution at 60th minute.
(§13) 2.5.10. All plates were mixed on a shaker for 10 min and then centrifuged at 4000 rpm at 4° C. for 20 min.
(§14) 2.5.11. Transferring 80 μL of supernatant to 240 μL of HPLC water and mixing on a
(§15) 2.6.1. Calculating t1/2 and Clint (mic) values based on first-order elimination kinetics: […]

Data set [2] in a line: Stability of the compound in liver microsomes (human). The data set is classed as in vitro ADME. The settings on record: 1 μM compound, 0.5 mg protein/mL. As for the experimental part:
as §1, §2, §3, §4, §5, §6, §7, §8, §9, §10, §11, §12, §13, §14, §15
Background: Microsomes from liver hold many membrane-bound enzymes, among them those of drug oxidation.

Another data set addresses Nav1.8 sodium channel (Homo sapiens (Human), UniProt Q9Y5Y9). Briefly: NaV1.8 blocking activity, manual patch clamp. The conditions noted are these: CHO cell line stably expressing Nav1.8. The class given is cell-based. The protocol: The NaV1.8 blocking activity was determined by using a manual patch clamp technique to detect the effect of the subject on the channel currents of stably overexpressed Nav1.8.
CHO cell line stably expressing the Nav1.8 sodium channel was used for the experiments, gene information: sodium channel, voltage-gated, type 8, alpha (SCN10A), cDNA strictly similar to GenBank accession number: NM 006514.
Cells were cultured in HAM'S/F-12 medium containing 10% foetal bovine serum and 10 μg/mL Blasticidin, 200 μg/mL Hygromycin B, and 100 μg/mL Zeocin at 37° C., 5% CO2. For expansion or maintenance cultures, cells were treated with 0.25%-Trypsin-EDTA, washed and centrifuged, and then inoculated in 6-cm cell culture dishes with 2.5×10^5lls per cell culture dish (final volume: 5 mL).
Prior to the patch clamp detection, cells were separated with 0.25%-Trypsin-EDTA and 6.5×10^3 cells were spread onto coverslips and incubated (final volume: 500 μL) in 24-well plates for 18 hours, then the test was performed.
50 mM CsCl, 10 mM NaCl, 10 mM HEPES, 60 mM CsF, 20 mM EGTA, and pH was adjusted to 7.2 with CsOH. • Instrument information is provided in Table 2 below:
Prior to Nav1.8 channel current testing, a blank control solution (DMSO) was diluted into 10 ml of extracellular fluid as the working solution. Positive controls and subjects were first diluted with different doses of DMSO depending on the final concentration before being diluted as working solution using extracellular fluid. 100 nM TTX was added to each working solution to block the TTX-S current. The working solution was sonicated for 20 min before performing the patch clamp test detection.
Patch clamp manipulation: firstly, the capillary glass tube was drawn into a recording electrode using a microelectrode puller, then the electrode filled with intracellular fluid was loaded into the microelectrode holder, and the microelectrode manipulator was manoeuvred under an inverted microscope to immerse the electrode into the extracellular fluid and record the electrode resistance (Rpip). The electrode was then slowly contacted to the cell surface and negative pressure suction was given to form a GQ2 seal. At this time, fast capacitance compensation was performed and negative pressure was continually applied to suction through the cell membrane to form a whole-cell recording pattern. Finally, slow capacitance compensation was performed and experimental parameters such as series resistance (Rs) were recorded. No leakage compensation was given.
Drug administration was initiated when the Nav1.8 current was stabilized for whole-cell recordings, and the next concentration was detected after each drug concentration had acted for approximately 5 min (or until the current was stable). Cell-lined coverslips were placed in the recording bath under an inverted microscope, and the blank control external solution as well as the working solution of the compound to be tested flowed sequentially from low to high concentrations through the recording bath by using gravitational perfusion and thus acted on the cells, and a peristaltic pump was used to exchange fluids during the recording. The current detected by each cell in the compound-free external fluid served as its own control. Each concentration was repeated independently 2-3 times. All electrophysiological experiments were performed at room temperature.
The voltage stimulation scheme for whole-cell patch-clamp recording of Nav1.8 currents was as follows: when a whole-cell seal was formed, the voltage was clamped at −120 mV. The resting state recording of sodium currents was performed by maintaining the voltage for 5s and then depolarizing it to 0 mV, and then administering a depolarizing pulse (TP1) to 0 m V for 50 ms for detecting the resting state sodium currents. For half-inactivated state recording, the voltage was first stepped at different voltages and maintained for 5s and then a depolarizing pulse was given to 0 mV to detect the Vhalf. […]
A general note: Patch clamp records ionic current or voltage across a cell membrane.

Data set [3] can be described thus: Stability of the compound in liver microsomes (mouse). The data set is classed as in vitro ADME, CD-1 mouse. The settings on record: 1 μM compound, 0.5 mg protein/mL. As for the experimental part:
as §1, §2, §3, §4, §5, §6, §7, §8, §9, §10, §11, §12, §13, §14, §15

Another data set concerns the target CYP1A2 (Homo sapiens (Human), UniProt P05177). In words: Human liver microsomal CYP inhibition test, CYP1A2. The data set is classed as in vitro ADME. The settings on record: microsomes. The protocol:
(§16) 3.1 Buffer solutions: (1) potassium phosphate 100 mM; (2) magnesium chloride, 33 mM;
(§17) 3.2.3 Reservoir for compounds to be tested: Dissolving the compounds to be tested in DMSO to form a 10 mM DMSO solution.
(§18) 3.4.1 Preparation of human liver microsomal working solution (1.27×) (final concentration: 0.2 mg/mL)
(§19) 3.5.3 Adding 20 μL of substrate solution to the appropriate wells and 20 μL of potassium phosphate buffer to the blank wells;
(§20) 3.5.4 Adding 2 μL of different concentrations of target compounds (final concentrations from 0.05 μM to 50 μM, 7 concentrations in total) or standard inhibitors to each well, with 2 μL of methanol solution in the non-inhibitor and blank wells;
(§21) 3.5.5 Adding 1.012 mL of liver microsomes to 78.988 mL of potassium phosphate buffer, then adding 158 μL of liver microsomes solution to all wells; preheating the well plate for 10 minutes in a 37° C. water bath;
(§22) 3.5.6 Weighing 129.1 mg NADPH (purchased from SyncoZymes Co. Ltd.) and adding to 15.0 mL of 33 Mm MgCl2 solution to give a 10 mM concentration, adding 20 μL to each well;
(§23) 3.5.7 Mixing and incubating the well plate in a 37° C. water bath for 10 minutes, then adding 400 μL of cold termination solution at the appropriate time point;
(§24) 3.5.8 Centrifuging the sample at 4000 rpm for 20 minutes to precipitate the protein. Transferring 200 μL of supernatant to 100 μL of HPLC water and shaking for 10 minutes. The samples were analyzed by LC/MS/MS;
(§25) Percentage inhibition was plotted for blank control and different concentrations of target compounds by using XL fitting or SigmaPlot and the data were analyzed by non-linear regression. IC50 values were determined by using either 3-parameter or 4-parameter logistic equations.

For a further data set, the target named is CYP2C19 (Homo sapiens (Human), UniProt P33261). Briefly: Human liver microsomal CYP inhibition test, CYP2C19. The data set is classed as in vitro ADME. The settings on record: human liver microsomes 0.2 mg/mL; substrate S-mephenytoin. The protocol: as §16, §17, §19, §20, §21, §22, §23, §24, §25
Chain of CYP2C19 (P33261 whole entry): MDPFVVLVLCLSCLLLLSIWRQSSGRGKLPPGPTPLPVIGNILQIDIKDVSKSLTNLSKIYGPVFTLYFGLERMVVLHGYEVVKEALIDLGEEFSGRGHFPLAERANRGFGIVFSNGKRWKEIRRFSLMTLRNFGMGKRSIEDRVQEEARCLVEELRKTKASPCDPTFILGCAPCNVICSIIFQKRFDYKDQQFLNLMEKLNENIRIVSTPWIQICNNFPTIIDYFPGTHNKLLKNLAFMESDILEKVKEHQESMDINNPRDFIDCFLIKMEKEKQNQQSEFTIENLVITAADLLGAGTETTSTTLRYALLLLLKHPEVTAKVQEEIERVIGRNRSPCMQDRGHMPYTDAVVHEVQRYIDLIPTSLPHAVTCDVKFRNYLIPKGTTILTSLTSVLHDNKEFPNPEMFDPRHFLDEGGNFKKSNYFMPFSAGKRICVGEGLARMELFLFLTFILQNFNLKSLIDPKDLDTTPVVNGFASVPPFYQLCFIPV
Another data set has as its target CYP2D6 (Homo sapiens (Human), UniProt P10635). In words: Human liver microsomal CYP inhibition test, CYP2D6. The class given is in vitro ADME. The conditions noted are these: human liver microsomes 0.2 mg/mL; substrate Dextromethorphan. As for the experimental part:
as §16, §17, §18, §19, §20, §21, §22, §23, §24, §25

The target of a further data set is CYP2C9 (Homo sapiens (Human), UniProt P11712). Briefly: Human liver microsomal CYP inhibition test, CYP2C9. The class given is in vitro ADME. The settings on record: human liver microsomes 0.2 mg/mL; substrate Diclofenac. As for the experimental part: as §16, §17, §18, §19, §20, §21, §22, §23, §24, §25
Chain of CYP2C9 (P11712 whole entry): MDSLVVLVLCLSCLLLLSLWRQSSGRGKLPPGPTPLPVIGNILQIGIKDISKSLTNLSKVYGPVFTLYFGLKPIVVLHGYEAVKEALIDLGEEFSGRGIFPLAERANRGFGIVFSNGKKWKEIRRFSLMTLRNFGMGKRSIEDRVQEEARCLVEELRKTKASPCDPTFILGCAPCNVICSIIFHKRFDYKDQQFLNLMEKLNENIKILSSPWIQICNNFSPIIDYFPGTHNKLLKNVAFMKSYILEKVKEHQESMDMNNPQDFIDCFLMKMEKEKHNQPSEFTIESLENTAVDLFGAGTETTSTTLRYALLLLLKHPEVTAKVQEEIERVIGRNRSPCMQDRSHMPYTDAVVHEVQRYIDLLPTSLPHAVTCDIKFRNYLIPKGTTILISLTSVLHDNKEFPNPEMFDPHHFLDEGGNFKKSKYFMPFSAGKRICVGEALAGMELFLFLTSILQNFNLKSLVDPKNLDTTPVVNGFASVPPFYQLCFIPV
For another data set, the target named is CYP3A-M (Homo sapiens, UniProt P08684). In words: Human liver microsomal CYP inhibition test, CYP3A-M (midazolam). The conditions noted are these: human liver microsomes 0.2 mg/mL; substrate Midazolam. The data set is classed as in vitro ADME. The protocol: as §16, §17, §18, §19, §20, §21, §22, §23, §24, §25
Chain of CYP3A-M (P08684 2-503 limits assumed): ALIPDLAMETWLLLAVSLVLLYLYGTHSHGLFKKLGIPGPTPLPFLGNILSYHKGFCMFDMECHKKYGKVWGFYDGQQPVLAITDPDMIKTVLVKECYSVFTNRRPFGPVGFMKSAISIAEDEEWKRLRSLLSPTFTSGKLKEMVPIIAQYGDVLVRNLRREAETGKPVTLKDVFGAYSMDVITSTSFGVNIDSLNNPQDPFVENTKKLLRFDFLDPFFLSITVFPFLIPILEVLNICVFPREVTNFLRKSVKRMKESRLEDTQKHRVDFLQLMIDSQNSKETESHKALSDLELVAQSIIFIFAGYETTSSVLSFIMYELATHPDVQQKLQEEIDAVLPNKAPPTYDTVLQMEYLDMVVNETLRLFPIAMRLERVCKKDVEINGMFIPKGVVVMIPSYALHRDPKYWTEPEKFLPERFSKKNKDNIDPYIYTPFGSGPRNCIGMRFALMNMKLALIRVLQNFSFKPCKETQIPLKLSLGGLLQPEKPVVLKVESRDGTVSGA

Chain of Nav1.8 sodium channel (Q9Y5Y9 whole entry): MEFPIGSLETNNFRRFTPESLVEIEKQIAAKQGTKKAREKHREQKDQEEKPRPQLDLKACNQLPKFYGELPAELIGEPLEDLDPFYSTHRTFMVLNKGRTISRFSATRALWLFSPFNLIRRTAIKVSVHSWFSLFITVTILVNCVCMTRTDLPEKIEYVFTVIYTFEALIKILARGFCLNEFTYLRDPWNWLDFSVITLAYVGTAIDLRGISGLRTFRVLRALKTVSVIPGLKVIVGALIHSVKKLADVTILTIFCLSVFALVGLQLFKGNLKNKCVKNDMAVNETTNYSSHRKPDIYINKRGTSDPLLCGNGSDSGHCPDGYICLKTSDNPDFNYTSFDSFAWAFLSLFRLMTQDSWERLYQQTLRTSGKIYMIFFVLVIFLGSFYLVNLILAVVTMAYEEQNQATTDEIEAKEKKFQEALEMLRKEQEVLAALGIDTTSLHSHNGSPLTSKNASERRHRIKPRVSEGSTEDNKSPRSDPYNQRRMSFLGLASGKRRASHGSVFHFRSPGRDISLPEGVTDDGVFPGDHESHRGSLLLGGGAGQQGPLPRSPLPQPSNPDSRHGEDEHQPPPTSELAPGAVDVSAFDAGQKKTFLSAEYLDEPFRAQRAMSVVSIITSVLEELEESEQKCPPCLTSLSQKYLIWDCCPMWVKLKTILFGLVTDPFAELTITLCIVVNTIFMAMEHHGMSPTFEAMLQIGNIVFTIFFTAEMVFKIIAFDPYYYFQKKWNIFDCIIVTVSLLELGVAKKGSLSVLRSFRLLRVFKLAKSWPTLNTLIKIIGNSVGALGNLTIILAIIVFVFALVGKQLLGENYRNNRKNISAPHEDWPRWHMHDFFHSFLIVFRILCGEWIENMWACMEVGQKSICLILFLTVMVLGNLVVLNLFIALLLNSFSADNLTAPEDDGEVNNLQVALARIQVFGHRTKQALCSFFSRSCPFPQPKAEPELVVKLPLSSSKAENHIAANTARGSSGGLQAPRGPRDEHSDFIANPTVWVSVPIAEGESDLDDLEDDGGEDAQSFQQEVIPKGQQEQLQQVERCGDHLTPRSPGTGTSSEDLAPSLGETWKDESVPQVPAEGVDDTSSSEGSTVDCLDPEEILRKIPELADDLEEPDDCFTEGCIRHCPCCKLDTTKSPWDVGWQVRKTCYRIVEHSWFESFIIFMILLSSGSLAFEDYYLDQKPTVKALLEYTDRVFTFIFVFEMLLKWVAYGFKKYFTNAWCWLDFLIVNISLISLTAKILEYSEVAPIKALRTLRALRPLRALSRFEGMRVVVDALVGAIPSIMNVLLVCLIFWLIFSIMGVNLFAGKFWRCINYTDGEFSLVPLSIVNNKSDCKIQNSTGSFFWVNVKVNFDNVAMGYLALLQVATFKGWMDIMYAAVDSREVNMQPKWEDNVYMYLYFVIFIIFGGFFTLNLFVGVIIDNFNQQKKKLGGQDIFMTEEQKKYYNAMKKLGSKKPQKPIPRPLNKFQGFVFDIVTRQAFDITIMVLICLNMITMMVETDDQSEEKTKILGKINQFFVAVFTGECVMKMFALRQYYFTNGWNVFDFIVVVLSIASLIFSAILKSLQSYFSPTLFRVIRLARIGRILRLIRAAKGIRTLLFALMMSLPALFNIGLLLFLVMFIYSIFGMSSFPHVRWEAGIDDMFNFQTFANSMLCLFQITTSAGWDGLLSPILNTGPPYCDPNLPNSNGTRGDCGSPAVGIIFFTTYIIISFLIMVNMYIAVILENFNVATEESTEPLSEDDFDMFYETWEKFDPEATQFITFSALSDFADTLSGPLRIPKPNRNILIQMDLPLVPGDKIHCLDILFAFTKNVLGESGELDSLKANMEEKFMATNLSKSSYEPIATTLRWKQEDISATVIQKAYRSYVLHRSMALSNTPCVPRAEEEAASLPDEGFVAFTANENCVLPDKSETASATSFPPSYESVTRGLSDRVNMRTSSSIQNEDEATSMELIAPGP
Chain of CYP1A2 (P05177 whole entry): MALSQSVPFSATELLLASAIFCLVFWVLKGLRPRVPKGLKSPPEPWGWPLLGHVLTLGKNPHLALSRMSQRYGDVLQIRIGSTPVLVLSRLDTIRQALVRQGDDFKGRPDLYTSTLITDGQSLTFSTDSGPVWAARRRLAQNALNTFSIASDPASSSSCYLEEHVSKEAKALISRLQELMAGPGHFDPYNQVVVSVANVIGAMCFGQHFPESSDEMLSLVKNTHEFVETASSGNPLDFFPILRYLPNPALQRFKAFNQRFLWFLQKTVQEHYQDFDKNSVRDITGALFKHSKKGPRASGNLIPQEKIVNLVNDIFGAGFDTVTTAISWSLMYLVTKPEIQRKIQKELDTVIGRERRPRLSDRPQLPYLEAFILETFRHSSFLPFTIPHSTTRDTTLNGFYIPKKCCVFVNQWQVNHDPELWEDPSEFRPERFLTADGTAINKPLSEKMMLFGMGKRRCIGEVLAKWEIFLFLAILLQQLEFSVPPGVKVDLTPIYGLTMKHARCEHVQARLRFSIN
Chain of CYP2D6 (P10635 whole entry): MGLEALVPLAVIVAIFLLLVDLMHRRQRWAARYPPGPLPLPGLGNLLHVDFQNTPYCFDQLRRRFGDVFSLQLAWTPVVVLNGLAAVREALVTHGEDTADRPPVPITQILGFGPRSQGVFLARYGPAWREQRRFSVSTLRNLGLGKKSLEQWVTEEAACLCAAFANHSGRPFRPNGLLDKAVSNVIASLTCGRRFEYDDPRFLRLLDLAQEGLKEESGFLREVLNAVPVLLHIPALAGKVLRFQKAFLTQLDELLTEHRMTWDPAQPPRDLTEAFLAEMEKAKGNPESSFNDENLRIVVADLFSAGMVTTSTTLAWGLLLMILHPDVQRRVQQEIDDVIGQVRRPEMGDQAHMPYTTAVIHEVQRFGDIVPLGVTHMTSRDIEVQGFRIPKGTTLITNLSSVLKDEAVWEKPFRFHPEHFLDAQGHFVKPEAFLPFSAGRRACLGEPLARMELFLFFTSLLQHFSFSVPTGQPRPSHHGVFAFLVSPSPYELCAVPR

Usually IC50 stands for the point on the concentration scale where inhibition reaches its midpoint. Low values mean inhibition by little substance, high ones a need for much substance. As for `COc1c([C@H]2[C@H](C(=O)Nc3ccnc(C(N)=O)c3)N[C@@](C)(C(F)(F)F)[C@H]2C)ccc(F)c1F` [Compound 1, 4-((2R,3S,4S,5R)-3-(3,4-difluoro-2-methoxyphenyl)-4,5-dimethyl-5-(trifluoromethyl)pyrrolidine-2-carboxamido)pyridine amide], the “Rat liver microsomes T½” value in data set [1] (37° C.) is given as 18.9 min. The “Rat liver microsomes Residual (T = 60 min)” value in data set [1] (T = 60 min) came to 11.1%. The “Human liver microsomes T½” value in data set [2] (37° C.) turned out to be 80.6 min. For the same compound, in data set [2] (T = 60 min), the “Human liver microsomes Residual (T = 60 min)” value was 58.4%. On Nav1.8 sodium channel, the “Blocking rate(%) @10 nM” value came to 97.98% and the IC50 is 0.0013 µM. Also, the “Mouse liver microsomes T½” value in data set [3] (37° C.) is 41.9 min. For the same compound, the “Mouse liver microsomes Residual (T = 60 min)” value in data set [3] (T = 60 min) is on record as 37.1%.

In the case of `COc1c([C@H]2[C@H](C(=O)Nc3ccc(F)c(C(=N)NO)c3)N[C@@](C)(C(F)(F)F)[C@H]2C)ccc(F)c1F.Cl` [Compound 10, (2R,3S,4S,5R)-3-(3,4-difluoro-2-methoxyphenyl)-aza-(4-fluoro-3-(aza-hydroxycarbamimidoyl)phenyl)-4,5-dimethyl-5-(trifluoromethyl) pyrrolidine-2-carboxamide hydrochloride], the half-maximal inhibitory concentration (IC50) against CYP1A2 is above 50 µM; on CYP2C19, 3.05 µM; against CYP2D6, above 50 µM; at CYP2C9 it was above 50 µM; against CYP3A-M, 39.3 µM. The “Blocking rate (%) @3 nM” value at Nav1.8 sodium channel (3 nM) is on record as 95.18%. Further, the “Blocking rate(%) @10 nM” value at Nav1.8 sodium channel amounted to 99.13%.

These data come from patent publication US20250296922A1, “POLYSUBSTITUTED PYRROLIDINE DERIVATIVE, PREPARATION METHOD THEREFOR AND USE THEREOF” (SHANGHAI WENNAI THERAPEUTICS CO LTD, priority 2023, published 2025).
